Assay results reported in article PMC9701179, “New tricyclic systems as photosensitizers towards triple negative breast cancer cells” (Archives of Pharmacal Research, 2022).
“Also recorded” adds a separate entry of the source. Like-named read-outs stand apart in the source and are kept apart here.

Experiments:
MDA-MB-231 cells [1] = assay: Intracellular ROS production (CM-H2DCFDA) under UVA; assay type: cell-based, human; conditions: MDA-MB-231, 25 µM, 90 min, UVA 2.0 J/cm^2; antimycin 3 µM positive control
Experimental: The production of ROS was measured in MDA-MB-231 cells (10^4 per well) grown for 24 h in a 96-well plate in RPMI medium without phenol red (Merk, Germany). Cells were then washed with PBS and loaded with 10 μM 5-(and-6)-chloromethyl-2′,7′-dichlorodihydrofluorescein diacetate acetyl ester (CM–H2DCFDA) (Molecular Probes-Invitrogen, Eugene, OR) for 45 min, in the dark. Afterwards, cells were washed with PBS and incubated with tested compounds (25 µM) for 90 min and after that exposed to UVA light (2.0 J/cm^2). Fluorescence increase was estimated utilizing the wavelengths of 485 nm (excitation) and 527 nm (emission) in a VICTOR X3 (PerkinElmer, USA) plate reader. Antimycin (3 μM, Merk), a potent inhibitor of Complex III in the electron transport chain, was used as positive control.
ROS production under light (UVA, 2.0 J/cm^2) was evaluated in MDA-MB-231 cell samples treated with increasing concentrations of tested compounds or antimycin, a potent inhibitor of Complex III of mitochondria electron chain, used as a positive control under the same experimental conditions (Fig. 4).
(§1) Fig. 4 Cellular ROS production (A) and total thiol redox state (B). A Effect of UVA activated tested compounds (25 µM) or antimycin (3 µM) on hydrogen peroxide formation in MDA-MB-231 cancer cells. B Sulfhydryl content in MDA-MB-231 cancer cells incubated for 24 h with UVA activated tested compounds. The sulfhydryl group amount was determined by the DTNB assay. Error bars indicate S.D

MDA-MB-231 cells [2] = assay: MTT cytotoxicity/photocytotoxicity test on human TNBC MDA-MB-231 cells; assay type: cell-based; conditions: Homo sapiens
Experimental: The irradiation device used for the irradiation of cell cultures during the assays was a black box equipped with two Philips UVA lamps with an irradiance of 17 mW cm^−2 and a centered emission peak at 365 nm; UVA irradiance was measured using a Waldmann Variocontrol radiometer, equipped with a UVA sensor. The box was maintained at room temperature inside with a fan and the multiwell plates were placed onto a water-refrigerated metal block.
Human triple negative (TNBC) breast MDA-MB-231 carcinoma cells were obtained from American Type Culture Collection (ATCC, Rockville, MD, USA). Human embryonic kidney HEK293 cells were obtained from the European Collection of Cell Cultures (ECACC, Salisbury, UK). Cell lines were maintained in the logarithmic phase at 37 °C in a 5% CO2 atmosphere using the following culture media containing 10% foetal calf serum (Euroclone, Milan, Italy), antibiotics (50 units/mL penicillin and 50 μg/mL streptomycin) and 2 mM l-glutamine: (i) RPMI-1640 medium (Euroclone, Milan, Italy) for MDA-MB-231 4 cells; (ii) DMEM (Euroclone, Milan, Italy) for HEK293 cells.
Cells (5–8 × 10^3 cells/well, dependent upon the growth characteristics of the cell line) were seeded in 96-well microplates in growth medium (100 μL). After 24 h, the medium was removed and replaced with a fresh one containing the compound to be studied at the appropriate concentration. Triplicate cultures were established for each treatment. For photocytotoxicity studies, after 1 h of incubation the medium was replaced with PBS and cells were treated with 2.0 J cm^−2 of UVA light. After irradiation, PBS was replaced with complete proliferation media. For pre-irradiation studies, instead, compounds in PBS were irradiated with 2.0 J cm^−2 of UVA light and subsequently cells were treated with pre-irradiated solutions. Following 24 h, each well was treated with 10 μL of a 5 mg/mL MTT saline solution, and following 5 h of incubation, 100 μL of a sodium dodecyl sulfate (SDS) solution in HCl 0.01 M were added. After an overnight incubation, cell growth inhibition was detected by measuring the absorbance of each well at 570 nm using a Bio-Rad 680 microplate reader. Mean absorbance for each drug dose was expressed as a percentage of the control untreated well absorbance and plotted against drug concentration. IC50 values, the drug concentrations that reduce the mean absorbance at 570 nm to 50% of those in the untreated control wells, were calculated by the four-parameter logistic (4-PL) model. Evaluation was based on means from at least four independent experiments.
The new synthetized pyrrolo[1,2-h][1,7]naphthyridinones 7 and pyrido[2,3-c]pyrrolo[1,2-a]azepinones 8 were screened for their cytotoxicity (in the dark) and photocitotoxicity (upon UVA light irradiation at 2.0 J/cm^2) profile on human TNBC cells, MDA-MB-231. The cytotoxicity/photocytotoxicity parameters, expressed in terms of IC50 values obtained by MTT test after 24 h of drug-exposure, are listed in Table 2.

MDA-MB-231 cells [3] = assay: Quantification of thiols (DTNB assay); assay type: cell-based, human; conditions: MDA-MB-231, 25 µM; for Intracellular thiols (qualitative): UVA 2.0 J/cm^2
Experimental: The MDA-MB-231 cells (2 × 10^5) were seeded in a six-well plate in growth medium (4 mL). After 24 h, cells were incubated with tested compounds (25 µM) for 90 min, and after that exposed to UVA light (2.0 J/cm^2). Subsequently, after 24 h, the thiol content was measured as previously described (Rigobello et al. [2009]).
as §1

MDA-MB-231 cells [4] = assay: Mitochondrial membrane potential (Mito-ID kit); assay type: cell-based, human; conditions: MDA-MB-231, UVA 2.0 J/cm^2; CCCP positive control
Experimental: The ΔΨ was assayed using the Mito-ID® Membrane Potential Kit according to the manufacturer’s instructions (Enzo Life Sciences, Farmingdale, NY, USA) as previously described. Briefly, MDA-MB-231 cells (8 × 10^3 per well) were seeded in 96-well plates; after 24 h, cells were washed with PBS and loaded with Mito-ID Detection Reagent for 30 min at 37 °C in the dark. Afterwards, cells were incubated with increasing concentrations of tested compounds for 90 min and after that exposed to UVA light (2.0 J/cm^2). CCCP (Carbonyl cyanide 3-chlorophenyl-hydrazone) was used as positive control. Fluorescence intensity was estimated using a VICTOR X3 (PerkinElmer, USA) plate reader at 490 (excitation) and 590 nm (emission).
Induction of ROS production can in turn prompt the collapse of mitochondrial membrane potential as well as loss of mitochondrial integrity and functioning. […] MDA-MB-231 TNBC cells were treated with tested compounds upon UVA irradiation and the percentage of cells with hypopolarized mitochondrial membrane potential was determined fluorometrically by means of the Mito-ID® Membrane Potential Kit.
Fig. 5 Effects on mitochondrial membrane potential (A) and cell death induction (B) in human breast MDA-MB-231 cancer cells. A Cells were treated with 7h and 8e and stained with TMRM (10 nM). Fluorescence was estimated at 490 nm (excitation) and 590 nm (emission). Data are the means of five independent experiments. Error bars indicate S.D. * P < 0.05. B Cells were treated with concentrations of 7h and 8e equal to IC50 for 24 h and stained with the fluorescent dyes Hoechst 33342 and PI

[5] = MDA-MB-231, in the dark, 1 h pre-treatment, recovered for total 24 h, read-out: Dark IC50 (µM) ± S.D
[6] = light or radiation study, MDA-MB-231, 1 h pre-treatment, UVA 2.0 J/cm^2, recovered for total 24 h, read-out: UVA (2.0 J/cm^2) IC50 (µM) ± S.D

Structure (SMILES) | Cellular ROS production (hydrogen peroxide formation) (MDA-MB-231 cells [1]) | IC50 (MDA-MB-231 cells [2]; [5]) [µM] | IC50 (MDA-MB-231 cells [2]; [6]) [µM] | Intracellular thiols (qualitative) (MDA-MB-231 cells [3]) | Cells with depolarized mitochondria (mitochondrial membrane potential) (MDA-MB-231 cells [4]) | Decrease of intracellular sulfhydryl content (MDA-MB-231 cells [3]; UVA 2.0 J/cm^2, after 24 h of exposure)
CCOC(=O)c1ccc2n1CCCc1cc(S(=O)(=O)c3ccccc3)c(OC)nc1-2 [Compound 8e, Ethyl 3-(benzenesulfonyl)-2-methoxy-6,7-dihydro-5H-pyrido[2,3-c]pyrrolo[1,2-a]azepine-9-carboxylate] | highest increase in cellular ROS production | > 50 | 15.3 ± 1.7 | significantly decreased | significant increase of cells with depolarized mitochondria | –
CCOC(=O)c1ccc2n1CCc1cc(S(=O)(=O)c3ccccc3)c(OC)nc1-2 [Compound 7h, Ethyl 3-(benzenesulfonyl)-2-methoxy-5,6-dihydropyrrolo[1,2-h][1,7]naphthyridine-8-carboxylate] | highest increase in cellular ROS production; also recorded: hydrogen peroxide content comparable to that induced by antimycin | > 50 | 4.4 ± 0.5 | significantly decreased | significant increase of cells with depolarized mitochondria | about 45%
